Data published in ChEMBL document CHEMBL1147344, “New Chlorophyll-A-Related Compounds Isolated as Antioxidants from Marine Bivalves” (J Nat Prod, 1993).
Calls of active or inactive are those of the source. The calls are words filed in the database; no cut-off is given here.

How the values were obtained:
Type in all cases: functional
[1] = Antioxidant activity assessed as inhibition of lipid peroxidation at 3 ug incubated at 40 degC in dark by paper disk method
[2] = Antioxidant activity assessed as inhibition of lipid peroxidation in dark at 40 degC by paper disk method
[3] = Antioxidant activity assessed as inhibition of lipid peroxidation at 20 ug incubated at 40 degC in dark by paper disk method

Structure (SMILES)	Activity [1]	other results
C=Cc1c(C)c2cc3nc(c4c5[nH]c(cc6nc(cc1[nH]2)C(C)=C6CC)c(C)c5C(=O)C4)[C@@H](CCC(=O)O)[C@@H]3C	Active	–
C=Cc1c(C)c2cc3nc(c4c5[nH]c(cc6nc(cc1[nH]2)C(C)=C6CC)c(C)c5C(=O)OC4=O)[C@@H](CCC(=O)OC)[C@@H]3C	Active	–
C=Cc1c(C)c2cc3nc4c5c6[nH]c(cc7nc(cc1[nH]2)C(C)=C7CC)c(C)c6C(=O)[C@]5(O)C(=O)CC[C@H]4[C@@H]3C	–	Activity [2]: Active
C=Cc1c(C)c2cc3nc4c(c5[nH]c(cc6nc(cc1[nH]2)C(C)=C6CC)c(C)c5C(=O)OC)C(=O)C(=O)CC[C@H]4[C@@H]3C	Active	–
C=Cc1c(C)c2cc3nc(c4c5[nH]c(cc6nc(cc1[nH]2)C(C)=C6CC)c(C)c5C(=O)C4=O)[C@@H](CCC(=O)O)[C@@H]3C	Active	–
C=Cc1c(C)c2cc3nc(c4c5[nH]c(cc6nc(cc1[nH]2)C(C)=C6CC)c(C)c5C(=O)OC4=O)[C@@H](CCC(=O)O)[C@@H]3C	Active	–
Cc1c(C)c2c(c(C)c1O)CC[C@@](C)(CCC[C@H](C)CCC[C@H](C)CCCC(C)C)O2	–	Activity [3]: Active
C=Cc1c(C)c2cc3nc4c5c6[nH]c(cc7nc(cc1[nH]2)C(C)=C7CC)c(C)c6C(=O)[C@@]5(O)C(=O)CC[C@H]4[C@@H]3C	Active	–
C=Cc1c(C)c2cc3nc4c5c6[nH]c(cc7nc(cc1[nH]2)C(C)=C7CC)c(C)c6C(=O)O[C@@]5(O)C(=O)CC[C@H]4[C@@H]3C	Active	–
